Laboratory results taken from ChEMBL document CHEMBL3817831, “Ionophoric polyphenols selectively bind Cu(2+), display potent antioxidant and anti-amyloidogenic properties, and are non-toxic toward Tetrahymena thermophila” (Bioorg Med Chem, 2016).
Calls of active or inactive are those of the source. The rule behind the calls is not given here.

Assays:
[1] = Binding affinity to Cu2+ using CuCl2 after 5 mins by spectrophotometry
[2] = Inhibition of preformed Cu2+-induced amyloid beta (1 to 40) fibril aggregation assessed as remaining fibril aggregates at 100 uM after 12 days at pH 6.60 by thioflavin-T fluorescence assay
[3] = Ratio of resveratrol IC50 to compound IC50 for DPPH free radical scavenging activity
[4] = Binding affinity to Zn2+ using ZnCl2 at 20 uM after 5 mins by spectrophotometry
[5] = Toxicity in Tetrahymena thermophila assessed as reduction in cell viability after 48 hrs by MTT assay; type: organism-based; settings: Tetrahymena thermophila cells, read-out: LD50
[6] = Inhibition of Cu2+-amyloid beta (1 to 40) catalyzed generation of hydroxyl radical assessed as rate of radical formation per min at 2 equiv preincubated for 1 hr followed by CCA addition measured over 60 mins by CCA based fluorescence assay (reference value: 13 +/- 0.2 a.u.)
[7] = Antioxidant activity assessed as DPPH free radical scavenging activity after 30 mins by spectrophotometry; type: physicochemical
[8] = Inhibition of Cu2+-induced amyloid beta (1 to 40) fibril aggregation assessed as remaining fibril aggregates at 100 uM preincubated for 5 mins followed by amyloid beta (1 to 40) addition measured after 3 days at pH 6.60 by thioflavin-T fluorescence assay
[9] = Ratio of resveratrol IC50 to compound IC50 for AAPH radical scavenging activity
[10] = target: Amyloid-beta precursor protein (Homo sapiens) (UniProt P05067); assay: Induction of self-induced amyloid beta (1 to 40) (unknown origin) fibril aggregation at 100 uM after 3 days by turbidity assay
Chain of Amyloid-beta precursor protein (Homo sapiens) (P05067 whole entry): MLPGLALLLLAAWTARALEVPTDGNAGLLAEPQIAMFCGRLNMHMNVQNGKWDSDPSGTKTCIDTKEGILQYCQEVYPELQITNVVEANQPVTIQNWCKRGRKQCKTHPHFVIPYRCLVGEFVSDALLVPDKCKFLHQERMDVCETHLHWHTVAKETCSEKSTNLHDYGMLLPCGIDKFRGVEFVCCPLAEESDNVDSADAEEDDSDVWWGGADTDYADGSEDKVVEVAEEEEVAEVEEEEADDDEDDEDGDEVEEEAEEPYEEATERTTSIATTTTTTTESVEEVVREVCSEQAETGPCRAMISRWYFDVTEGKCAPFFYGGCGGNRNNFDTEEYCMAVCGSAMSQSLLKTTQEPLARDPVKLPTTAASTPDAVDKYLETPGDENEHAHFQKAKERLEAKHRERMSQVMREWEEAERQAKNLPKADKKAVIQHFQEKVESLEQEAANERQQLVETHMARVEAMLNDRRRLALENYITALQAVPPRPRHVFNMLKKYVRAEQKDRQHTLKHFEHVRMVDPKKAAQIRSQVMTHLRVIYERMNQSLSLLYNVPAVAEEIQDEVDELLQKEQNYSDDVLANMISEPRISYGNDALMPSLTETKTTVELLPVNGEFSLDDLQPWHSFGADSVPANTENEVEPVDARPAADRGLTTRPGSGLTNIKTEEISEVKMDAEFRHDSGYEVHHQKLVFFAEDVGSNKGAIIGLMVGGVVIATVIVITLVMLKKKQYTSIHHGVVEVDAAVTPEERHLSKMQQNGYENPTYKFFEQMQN

[11] = target: Amyloid-beta precursor protein (Homo sapiens) (UniProt P05067); assay: Inhibition of self-induced amyloid beta (1 to 40) (unknown origin) fibril aggregation at 100 uM after 7 to 18 days by turbidity assay
[12] = Binding affinity to Ca2+ using CaCl2 at 20 uM after 5 mins by spectrophotometry
[13] = Binding affinity to Fe2+ using FeCl2 at 20 uM after 5 mins by spectrophotometry
[14] = Antioxidant activity assessed as AAPH radical scavenging activity preincubated for 30 mins followed by AAPH addition measured after 60 mins by ORAC assay; type: physicochemical
[15] = Inhibition of Cu2+-induced amyloid beta (1 to 40) fibril aggregation assessed as remaining fibril aggregates at 100 uM preincubated for 5 mins followed by amyloid beta (1 to 40) addition measured after 7 days at pH 6.60 by thioflavin-T fluorescence assay
[16] = Binding affinity to Mg2+ using MgSO4 at 20 uM after 5 mins by spectrophotometry
[17] = Inhibition of preformed Cu2+-induced amyloid beta (1 to 40) fibril aggregation at 100 uM after 12 days by turbidity assay relative to control
[18] = target: Amyloid-beta precursor protein (Homo sapiens) (UniProt P05067); assay: Inhibition of preformed self-induced amyloid beta (1 to 40) (unknown origin) fibril aggregation assessed as remaining fibril aggregates at 100 uM after 12 days at pH 6.60 by thioflavin-T fluorescence assay
[19] = Inhibition of preformed Cu2+-induced amyloid beta (1 to 40) fibril aggregation at 100 uM after 12 days by turbidity assay relative to total turbidity of amyloid beta (1 to 40) aggregates
[20] = Inhibition of preformed Cu2+-induced amyloid beta (1 to 40) fibril aggregation assessed as remaining fibril aggregates at 100 uM after 4 days at pH 6.60 by thioflavin-T fluorescence assay
[21] = Inhibition of Cu2+-induced amyloid beta (1 to 40) aggregation at 100 uM preincubated for 5 mins followed by amyloid beta (1 to 40) addition measured after 18 days at pH 6.60 by thioflavin-T fluorescence assay
[22] = Inhibition of Cu2+-amyloid beta (1 to 40) catalyzed generation of hydroxyl radical assessed as 7-hrdroxy-CCA formation at 2 equiv preincubated for 1 hr followed by CCA addition measured over 60 mins by fluorescence assay
[23] = Binding affinity to Mn2+ using MnCl2 at 20 uM after 5 mins by spectrophotometry
[24] = target: Amyloid-beta precursor protein (Homo sapiens) (UniProt P05067); assay: Binding affinity to amyloid beta (1 to 40) (unknown origin) by tyrosine fluorimetric titration assay
[25] = target: Amyloid-beta precursor protein (Homo sapiens) (UniProt P05067); assay: Induction of preformed self-induced amyloid beta (1 to 40) (unknown origin) fibril aggregation at 100 uM after 4 days by turbidity assay
[26] = Inhibition of Cu2+-induced amyloid beta (1 to 40) fibril aggregation at 100 uM preincubated for 5 mins followed by amyloid beta (1 to 40) addition measured after 18 days by turbidity assay
[27] = target: Amyloid-beta precursor protein (Homo sapiens) (UniProt P05067); assay: Inhibition of preformed self-induced amyloid beta (1 to 40) (unknown origin) fibril aggregation assessed as remaining fibril aggregates at 100 uM after 4 days at pH 6.60 by thioflavin-T fluorescence assay
[28] = target: Amyloid-beta precursor protein (Homo sapiens) (UniProt P05067); assay: Inhibition of preformed self-induced amyloid beta (1 to 40) (unknown origin) fibril aggregation at 100 uM after 12 days by turbidity assay relative to control
[29] = target: Amyloid-beta precursor protein (Homo sapiens) (UniProt P05067); assay: Inhibition of self-induced amyloid beta (1 to 40) (unknown origin) fibril aggregation assessed as remaining fibril aggregates at 100 uM after 7 days at pH 6.60 by thioflavin-T fluorescence assay
[30] = target: Amyloid-beta precursor protein (Homo sapiens) (UniProt P05067); assay: Inhibition of self-induced amyloid beta (1 to 40) (unknown origin) fibril aggregation assessed as remaining fibril aggregates at 100 uM after 3 days at pH 6.60 by thioflavin-T fluorescence assay
[31] = Binding affinity to Cu2+ using CuCl2 at 10 uM after 5 mins by spectrophotometric titration assay
[32] = Binding affinity to Cu2+ assessed as compound-metal adduct formation
[33] = Induction of preformed Cu2+-induced amyloid beta (1 to 40) fibril aggregation at 100 uM after 4 to 12 days by turbidity assay relative to control

| Compound | logKa [1] | Ratio IC50 [3] | Activity [4] | LC50 at 48 h [5] | Activity [6] | IC50 [7] | Activity [8] | Ratio IC50 [9] | Activity [12] | Activity [13] | IC50 [14] | Activity [15] | Activity [16] | Activity [18] | inhibition [22] | Activity [23] | Ka [24] | Activity [27] | Activity [29] | Activity [30] | further results |
| --- | --- | --- | --- | --- | --- | --- | --- | --- | --- | --- | --- | --- | --- | --- | --- | --- | --- | --- | --- | --- | --- |
| Oc1ccccc1/N=C/c1c(O)ccc2ccccc12 | 14 | 0.5 | inactive | 158 µM | 0 a.u. | 38.5 µM | 41.5% | 0.1 | inactive | inactive | 11.5 µM | 33.7% | inactive | 26.6% | 100% | inactive | 1.91 ×10⁵ /M | 36.2% | 13.9% | 22.6% | Activity [2]: 42.8%; Activity [10]: Active; inhibition [11]: Active; inhibition [17]: < 57%; inhibition [19]: < 22%; Activity [20]: 66.4%; inhibition [21]: Active; Activity [25]: Active; inhibition [26]: Active; inhibition [28]: 25%; Activity [31]: Active |
| Oc1c(I)cc(Cl)c2cccnc12 [CLIOQUINOL] | 15.6 | 0.4 | Active | 240 µM | 1.2 a.u. | 40.6 µM | 250% | 0.2 | Active | Active | 9.72 µM | 196% | Active | 310% | 87.7% | Active | 3.69 ×10⁵ /M | 170% | 112% | 120% | logKa [32]: 10; Activity [33]: Active |
